# Key:
# KCC2 = target: T1, KCC2 (Homo sapiens, UniProt Q9H2X9); assay: Cellular thermal shift assay (CETSA) in transfected HEK-293 cells; format: binding; details: 30 μM, 90 min, heated 37-58° C.
# T1 construct: expressed in transfected cells; host or cells: HEK-293 (ATCC CRL-1573)
# T1 sequence (Q9H2X9 1-1116 isoform Q9H2X9-2): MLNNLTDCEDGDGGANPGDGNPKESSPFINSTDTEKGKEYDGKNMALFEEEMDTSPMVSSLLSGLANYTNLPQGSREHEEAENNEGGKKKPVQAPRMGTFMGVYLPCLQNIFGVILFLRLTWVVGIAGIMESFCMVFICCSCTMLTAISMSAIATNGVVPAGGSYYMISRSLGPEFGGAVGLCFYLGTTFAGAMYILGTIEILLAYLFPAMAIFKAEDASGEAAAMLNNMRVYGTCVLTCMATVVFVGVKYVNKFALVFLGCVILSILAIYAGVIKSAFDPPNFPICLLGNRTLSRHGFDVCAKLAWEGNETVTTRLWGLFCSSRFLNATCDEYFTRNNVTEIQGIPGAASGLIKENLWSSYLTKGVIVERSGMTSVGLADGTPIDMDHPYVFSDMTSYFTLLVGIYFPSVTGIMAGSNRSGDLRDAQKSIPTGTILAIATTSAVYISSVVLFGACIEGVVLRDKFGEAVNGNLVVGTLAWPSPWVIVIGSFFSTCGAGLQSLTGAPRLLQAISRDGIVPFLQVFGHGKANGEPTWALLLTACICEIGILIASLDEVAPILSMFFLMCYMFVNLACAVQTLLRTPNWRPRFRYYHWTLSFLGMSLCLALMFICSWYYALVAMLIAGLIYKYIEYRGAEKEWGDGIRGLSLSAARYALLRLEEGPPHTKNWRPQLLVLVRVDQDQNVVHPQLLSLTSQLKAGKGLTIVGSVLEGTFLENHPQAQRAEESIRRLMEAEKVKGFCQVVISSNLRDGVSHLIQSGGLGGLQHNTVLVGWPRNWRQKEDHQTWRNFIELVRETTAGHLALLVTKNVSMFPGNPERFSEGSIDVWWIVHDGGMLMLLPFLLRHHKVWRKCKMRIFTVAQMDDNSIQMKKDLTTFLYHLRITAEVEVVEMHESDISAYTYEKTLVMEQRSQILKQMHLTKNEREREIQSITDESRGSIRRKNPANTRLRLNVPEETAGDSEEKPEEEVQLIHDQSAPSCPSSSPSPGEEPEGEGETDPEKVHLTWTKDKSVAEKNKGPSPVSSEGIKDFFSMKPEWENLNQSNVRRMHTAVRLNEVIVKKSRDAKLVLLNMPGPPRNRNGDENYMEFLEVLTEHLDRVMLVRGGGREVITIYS
# Description: Determining if compounds in SSA directly interact with KCC2. This was tested using a cellular thermal shift assay (CETSA), which measures the ability of a drug to modify the thermal stability of its target in whole cells (Kawatkar et al., ACS Chem. Biol. 14, 1913-1920 (2019); Martinez et al., Sci Rep 8, 9472 (2018)).
# 2×10^6 transfected HEK-293 cells were incubated with 30 μM drug or vehicle for 90 min at 37° C. and then heated from 37-58° C. for 5 min. Cells were rapidly chilled to 25° C. and NP40 was added to a final concentration […] to snap freezing in liquid nitrogen. Following 5 freeze/thaw cycles lysates were centrifuged at 12,000×g to remove denatured proteins and associated cell debris.
# Aliquots of HEK-293 cells expressing KCC2 were exposed to 30 μM SSA, heated from 37-55° C. The remaining level of soluble native KCC2 at each temperature was measured by immunoblotting and normalized to the level seen at 37° C. which was given a value of 1. […] This panel included protein kinase C isoforms, OSR1, SPAK (STK39) and with-no-lysine kinases (WNK), all of which phosphorylate KCC2 on multiple residues to indirectly modify its activity (Kahle et al., 2013, supra; Smalley et al., 2020, supra).
# KA induced SE = assay: Kainic acid (KA) induced SE, EEG recording, pretreatment; format: in vivo, mice
# Text: This model was chosen due to the similarities with patients undergoing SE, as KA-induced seizures become refractory to benzodiazepines (BDZs) within minutes (Betjemann and Lowenstein, Lancet Neurol 14, 615-624 (2015); Crawshaw and Cock, (2020a) [Seizure: Eur. J. Epilep. 75 (2020) 145-152] Seizure 80, 282; Lee et at, 2022, supra; Reddy and Kuruba, Int J Mol Sci 14, 18284-18318 (2013)).
# EEG recordings and analysis. WT C57Bl/6J adult male mice (12 weeks) were anesthetized with isofluorane and implanted with EEG/EMG electrodes and allowed to recover for 7 days prior to experimentation. […] 2h following KA administration mice were injected with a saturating concentration of diazepam (DZ) 10 mg/kg (IP) and recordings were extended for a further 60 min. […] LabChart 8 software was used for data analysis. Epileptiform activity was identified by changes in the amplitude of electrographic activity characterized by consistent changes in the power of the Fast Fourier transform (FFT) of the EEG and abnormal activity characterized by periods of rhythmic spiking lasting longer than 30s (Moore et al., 2017, supra; Silayeva et al., 2015, supra; Sivakumaran et al., J. Neurosci. 35, 8291-8296 (2015)).
# To provide quantitative insights on the effects of KA, raw EEG recordings were subject to Fast-Fourier transformation (8K FFT size, Hann (cosine-bell), 87.50% window overlap) for frequencies between 0-100 Hz 2h after KA injection (Lee et at, 2022, supra).
# 30 or 60 min later mice were injected with KA (20 mg/kg) and 2h later with DZ as detailed above.
smiles,measurement,setting,value
"C[C@@H]1CN(c2nc3c(c(Nc4ccc(C5CCCCC5)cc4)n2)COC3)CCO1 [Compound A, (R)—N-(4-cyclohexylphenyl)-2-(2-methylmorpholino)-5,7-dihydrofuro[3,4-d]pyrimidin-4-amine]",thermal stability of KCC2 / direct binding (CETSA),KCC2,capable of directly binding to KCC2
same,seizure parameters after injection directly into the hippocampus,"KA induced SE; 10 μM or 20 μM, 30 or 60 min before KA 20 mg/kg, relative to vehicle","increased the latency to the 1st seizure, to SE, and reduced the percentage of time in epileptiform activity"
same,latency to the first seizure,"KA induced SE; 50 mg/kg SC 2h before 20 mg/kg KA IP, vehicle=10.2±2.5",14.4 ± 2.9 min
same,latency to SE,"KA induced SE; 50 mg/kg SC 2h before KA, vehicle=38.3±3.4",54.5 ± 6.9 min
same,time spent in epileptiform activity,"KA induced SE; 50 mg/kg SC 2h before KA, vehicle=85±5.4",62.5±8.4%
same,total EEG power post DZ,"KA induced SE; mice pretreated with Compound A, then DZ 10 mg/kg IP 2h after KA",2.7±3.2×10^−7 μV^2
same,total EEG power 2h after KA (pre DZ),"KA induced SE; pretreated with Compound A, vehicle 4.2±2.4×10^−6",6.9±3.2×10^−7 μV^2
same,development of refractory status epilepticus (RSE),"KA induced SE; pretreatment, 4h later",prevented the development of refractory status epilepticus (RSE)

# From US20250281497A1, “FUSED AMINO PYRIMIDINE COMPOUNDS FOR TREATMENT OF SEIZURE DISORDERS” (Ovid Therapeutics Inc., priority 2024, published 2025)
